{"source": "patent US8822447B2", "about": "“Indazole compounds useful as ketohexokinase inhibitors” (Janssen Pharmaceutica NV, priority 2010, dated 2014)", "note": "Structures can show the parent of a compound that is named as a salt.", "data": [{"biological_target": "KHK (Homo sapiens (Human), UniProt P50053)", "sequence (P50053 whole entry)": "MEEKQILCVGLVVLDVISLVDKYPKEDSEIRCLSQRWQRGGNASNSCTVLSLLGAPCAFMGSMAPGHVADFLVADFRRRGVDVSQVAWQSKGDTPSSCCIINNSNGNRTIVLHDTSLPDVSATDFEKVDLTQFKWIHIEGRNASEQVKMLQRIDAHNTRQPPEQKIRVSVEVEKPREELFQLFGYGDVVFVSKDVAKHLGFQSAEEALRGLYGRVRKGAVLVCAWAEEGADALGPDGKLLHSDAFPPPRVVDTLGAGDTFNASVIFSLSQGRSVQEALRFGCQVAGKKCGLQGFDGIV", "assay": "In Vitro KHK Enzyme Assay (HTMS);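 note: primary screen measuring inhibition of KHK-catalysed conversion of D-fructose into fructose 1-phosphate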", "assay_type": "biochemical", "conditions": "200 μM fructose, 100 μM ATP, 2 nM KHK, 60 min at 25° C.; Fructose-1-P detected by high throughput mass spectrometry", "units": {"IC50": "µM"}, "procedure": "An enzymatic assay was developed to measure KHK-mediated conversion of D-fructose to Fructose-1-P (F-1-P) using High Throughput Mass Spectroscopy (HTMS) as a means of product detection. This assay served as a primary screen to evaluate the ability to inhibit KHK enzyme activity and it has been adapted to high throughput mass spectrometry (HTMS, BioTrove RapidFire™) format for higher throughput.\nThe compounds to be tested were dosed in 12-points concentration from 511 μM to 0.5 μM. […] The assay was carried out in 384-well plate format.", "values": [{"smiles": "CSc1nn(-c2ccccc2)c2cc(N3CCN(Cc4ccncc4)CC3)ccc12", "note": "[Compound 18, 3-Methylsulfanyl-1-phenyl-6-(4-pyridin-4-ylmethyl-piperazin-1-yl)-1H-indazole Hydrochloride]", "IC50": 2.03}, {"smiles": "CSc1nn(-c2ccccc2)c2cc(C=Cc3ccc(C)nc3)ccc12", "note": "[Compound 178, 6-[2-(6-Methyl-pyridin-3-yl)-vinyl]-3-methylsulfanyl-1-phenyl-1H-indazole]", "IC50": "> 10"}, {"smiles": "CSc1nn(-c2ccc([N+](=O)[O-])cc2)c2cc(C(=O)N3CCNCC3)ccc12", "note": "[Compound 133, [3-Methylsulfanyl-1-(4-nitro-phenyl)-1H-indazol-6-yl]-piperazin-1-yl-methanone]", "IC50": "> 51"}, {"smiles": "CSc1nn(-c2ccc(C)cc2)c2cc(C3=CCNCC3)ccc12", "note": "[Compound 184, 3-Methylsulfanyl-6-(1,2,3,6-tetrahydro-pyridin-4-yl)-1-p-tolyl-1H-indazole]", "IC50": 0.04}, {"smiles": "Cc1nn(-c2ccccc2)c2cc(N3CCN(C4CCNC4)CC3)ccc12", "note": "(stereo not drawn) [Compound 63, 3-Methyl-1-phenyl-6-(4-(pyrrolidin-3-yl)piperazin-1-yl)-1H-indazole hydrochloride]", "IC50": 3.75}, {"smiles": "CSc1nn(-c2ccccc2)c2cc(N3CCN(C(=O)C4CCCNC4)CC3)ccc12", "note": "(stereo not drawn) [Compound 16, 4-(3-Methylsulfanyl-1-phenyl-1H-indazol-6-yl)-piperazin-1-yl]-piperidin-3-yl-methanone hydrochloride]", "IC50": 2.89}, {"smiles": "Cc1nn(-c2ccccc2)c2cc(N3CCN(C)CC3)ccc12", "note": "[Compound 68, 3-Methyl-6-(4-methylpiperazin-1-yl)-1-phenyl-1H-indazole]", "IC50": 1.57}, {"smiles": "Cc1nn(-c2ccccc2)c2nc(CC3CCN(C4CNC4)CC3)nc(O)c12", "note": "[Compound 90, 6-(1-Azetidin-3-yl-piperidin-4-ylmethyl)-3-methyl-1-phenyl-1H-pyrazolo[3,4-d]pyrimidin-4-ol]", "IC50": "> 30"}, {"smiles": "CSc1nn(-c2ccccc2)c2cc(N3CCN(C4CCNC4)C3=O)ccc12", "note": "(stereo not drawn) [Compound 25, 1-(3-(Methylthio)-1-phenyl-1H-indazol-6-yl)-3-(pyrrolidin-3-yl)imidazolidin-2-one hydrochloride]", "IC50": 0.46}, {"smiles": "CSc1nn(-c2ccc(N)cc2)c2cc(CN3CCNCC3)ccc12", "note": "[Compound 115, 4-(3-Methylsulfanyl-6-piperazin-1-ylmethyl-indazol-1-yl)-phenylamine]", "IC50": "> 51"}, {"smiles": "COc1nn(-c2ccccc2)c2cc(-c3ccc(N4CCNCC4)cc3)ccc12", "note": "[Compound 78, 3-Methoxy-1-phenyl-6-(4-(piperazin-1-yl)phenyl)-1H-indazole hydrochloride]", "IC50": 4.42}, {"smiles": "Cc1nn(-c2ccccc2)c2nc(C3CCN(c4cccnc4)CC3)nc(O)c12", "note": "[Compound 84, 3-Methyl-1-phenyl-6-(3,4,5,6-tetrahydro-2H-[1,3′]bipyridinyl-4-yl)-1H-pyrazolo[3,4-d]pyrimidin-4-ol]", "IC50": "> 30"}, {"smiles": "Cc1nn(-c2ccccc2)c2cc(N3CCC(N)C3)ccc12", "note": "(stereo not drawn) [Compound 72, 1-(3-Methyl-1-phenyl-1H-indazol-6-yl)pyrrolidin-3-amine formic acid salt]", "IC50": 0.68}, {"smiles": "Cc1nn(-c2ccccc2)c2cc(N3CCNC(C)C3)ccc12", "note": "(stereo not drawn) [Compound 71, 3-Methyl-6-(3-methylpiperazin-1-yl)-1-phenyl-1H-indazole formic acid salt]", "IC50": 0.4}, {"smiles": "COc1nn(-c2ccccc2)c2cc(N3CCN(c4ccncc4)CC3)ccc12", "note": "[Compound 77, 3-Methoxy-1-phenyl-6-(4-(pyridin-4-yl)piperazin-1-yl)-1H-indazole hydrochloride]", "IC50": 8.1}, {"smiles": "COc1nn(-c2ccccc2)c2cc(-c3ccc(-n4ccnc4)cc3)ccc12", "note": "[Compound 79, 6-(4-(1H-Imidazol-1-yl)phenyl)-3-methoxy-1-phenyl-1H-indazole]", "IC50": "> 30"}, {"smiles": "CCN(CC1CCNCC1)c1ccc2c(SC)nn(-c3ccccc3)c2c1", "note": "[Compound 108, Ethyl-(3-methylsulfanyl-1-phenyl-1H-indazol-6-yl)-piperidin-4-ylmethyl-amine]", "IC50": 0.89}, {"smiles": "CSc1nn(-c2ccc(N)cc2)c2cc(C(=O)NC3CCNCC3)ccc12", "note": "[Compound 111, 1-(4-Amino-phenyl)-3-methylsulfanyl-1H-indazole-6-carboxylic acid piperidin-4-ylamide]", "IC50": 2.61}, {"smiles": "Cc1nn(-c2ccccc2)c2nc(C3CCN(C4CCNCC4)CC3)nc(O)c12", "note": "[Compound 89, 6-[1,4′]Bipiperidinyl-4-yl-3-methyl-1-phenyl-1H-pyrazolo[3,4-d]pyrimidin-4-ol hydrochloride]", "IC50": 14}, {"smiles": "CCc1nn(-c2ccccc2)c2nc(C3CCN(c4cccnc4)CC3)nc(O)c12", "note": "[Compound 93, 3-Ethyl-1-phenyl-6-(3,4,5,6-tetrahydro-2H-[1,3′]bipyridinyl-4-yl)-1H-pyrazolo[3,4-d]pyrimidin-4-ol]", "IC50": 7.9}, {"smiles": "Cc1nn(-c2ccccc2)c2cc(N3CCC(N4CCNCC4)C3)ccc12", "note": "(stereo not drawn) [Compound 61, 3-Methyl-1-phenyl-6-(3-(piperazin-1-yl)pyrrolidin-1-yl)-1H-indazole hydrochloride]", "IC50": 1.01}, {"smiles": "CSc1nn(-c2ccc([N+](=O)[O-])cc2)c2cc(C(=O)NC3CCNCC3)ccc12", "note": "[Compound 110, 3-Methylsulfanyl-1-(4-nitro-phenyl)-1H-indazole-6-carboxylic acid piperidin-4-ylamide]", "IC50": 9.83}, {"smiles": "CSc1nn(-c2ccc([N+](=O)[O-])cc2)c2cc(C3=CCNCC3)ccc12", "note": "[Compound 124, 3-Methylsulfanyl-1-(4-nitro-phenyl)-6-(1,2,3,6-tetrahydro-pyridin-4-yl)-1H-indazole]", "IC50": 0.49}, {"smiles": "CSc1nn(-c2ccccc2)c2cc(C=CC3CCCNC3)ccc12", "note": "(stereo not drawn) [Compound 176, 3-Methylsulfanyl-1-phenyl-6-(2-piperidin-3-yl-vinyl)-1H-indazole]", "IC50": 0.79}, {"smiles": "CSc1nn(-c2ccccc2)c2cc(NC(=O)C3(F)CCNCC3)ccc12", "note": "[Compound 167, 4-Fluoro-piperidine-4-carboxylic acid (3-methylsulfanyl-1-phenyl-1H-indazol-6-yl)-amide]", "IC50": 0.66}, {"smiles": "CSc1nn(-c2ccccc2)c2cc(NC(=O)CN3CCNCC3)ccc12", "note": "[Compound 131, N-(3-Methylsulfanyl-1-phenyl-1H-indazol-6-yl)-2-piperazin-1-yl-acetamide]", "IC50": 0.68}, {"smiles": "CSc1nn(-c2ccccc2)c2cc(C(=O)C(=O)N3CCNCC3)ccc12", "note": "[Compound 168, 1-(3-Methylsulfanyl-1-phenyl-1H-indazol-6-yl)-2-piperazin-1-yl-ethane-1,2-dione]", "IC50": 4.12}, {"smiles": "CCOc1cc(-c2ccc(N3CCNCC3)cc2)nc2c1c(CC)nn2-c1ccccc1", "note": "[Compound 102, 4-Ethoxy-3-ethyl-1-phenyl-6-(4-piperazin-1-yl-phenyl)-1H-pyrazolo[3,4-b]pyridine]", "IC50": 1.43}, {"smiles": "CSc1nn(-c2ccccc2)c2cc(NCC3CCNCC3)ccc12", "note": "[Compound 112, (3-Methylsulfanyl-1-phenyl-1H-indazol-6-yl)-piperidin-4-ylmethyl-amine]", "IC50": 0.42}, {"smiles": "CCc1nn(-c2ccccc2)c2cc(N3CCN(C4CCNC4)CC3)ccc12", "note": "(stereo not drawn) [Compound 45, 3-Ethyl-1-phenyl-6-(4-(pyrrolidin-3-yl)piperazin-1-yl)-1H-indazole hydrochloride]", "IC50": 2.06}, {"smiles": "CSc1nn(-c2ccccc2)c2cc(NC(=O)NC3CCNC3)ccc12", "note": "(stereo not drawn) [Compound 4, 1-(3-(Methylthio)-1-phenyl-1H-indazol-6-yl)-3-(pyrrolidin-3-yl)urea hydrochloride]", "IC50": 0.45}, {"smiles": "CSc1nn(-c2ccccc2)c2cc(NC(=O)C3CCCN3)ccc12", "note": "(stereo not drawn) [Compound 13, N-(3-(Methylthio)-1-phenyl-1H-indazol-6-yl)pyrrolidine-2-carboxamide hydrochloride]", "IC50": 0.26}, {"smiles": "CSc1nn(-c2ccccc2)c2cc(N3CCN(C4CCNCC4)CC3)ccc12", "note": "[Compound 23, 3-(Methylthio)-1-phenyl-6-(4-(piperidin-4-yl)piperazin-1-yl)-1H-indazole hydrochloride]", "IC50": 0.68}, {"smiles": "CCc1nn(-c2ccccc2)c2nc(N3CCN(C4CNC4)CC3)ncc12", "note": "[Compound 82, 6-(4-Azetidin-3-yl-piperazin-1-yl)-3-ethyl-1-phenyl-1H-pyrazolo[3,4-d]pyrimidine]", "IC50": 23}, {"smiles": "CSc1nn(-c2cccc(C)c2)c2cc(C3=CCNCC3)ccc12", "note": "[Compound 147, 3-Methylsulfanyl-6-(1,2,3,6-tetrahydropyridin-4-yl)-1-(3-methylphenyl)-1H-indazole]", "IC50": 0.03}, {"smiles": "COc1nn(-c2ccccc2)c2cc(N3CCN(C4CCNC4)CC3)ccc12", "note": "(stereo not drawn) [Compound 75, 3-Methoxy-1-phenyl-6-(4-(pyrrolidin-3-yl)piperazin-1-yl)-1H-indazole hydrochloride]", "IC50": 0.31}, {"smiles": "CCc1nn(-c2ccccc2)c2nc(C3CCN(C(=O)C4CCNCC4)CC3)nc(O)c12", "note": "[Compound 96, [4-(3-Ethyl-4-hydroxy-1-phenyl-1H-pyrazolo[3,4-d]pyrimidin-6-yl)-piperidin-1-yl]-piperidin-4-yl-methanone hydrochloride]", "IC50": 30}, {"smiles": "CSc1nn(-c2ccccc2)c2cc(OCC3CCNCC3)ccc12", "note": "[Compound 107, 3-Methylsulfanyl-1-phenyl-6-(piperidin-4-ylmethoxy)-1H-indazole]", "IC50": 0.44}, {"smiles": "CCc1nn(-c2ccccc2)c2cc(N3CCC(N4CCNCC4)CC3)ccc12", "note": "[Compound 36, 3-Ethyl-1-phenyl-6-(4-piperazin-1-yl-piperidin-1-yl)-1H-indazole hydrochloride]", "IC50": 0.89}, {"smiles": "CSc1nn(-c2ccccc2)c2cc(NC(=O)C3(C)CCNCC3)ccc12", "note": "[Compound 158, 4-Methyl-piperidine-4-carboxylic acid (3-methylsulfanyl-1-phenyl-1H-indazol-6-yl)-amide]", "IC50": 0.7}, {"smiles": "CSc1nn(-c2ccc(Br)cc2)c2cc(OCC3CCNCC3)ccc12", "note": "[Compound 128, 1-(4-Bromo-phenyl)-3-methylsulfanyl-6-(piperidin-4-ylmethoxy)-1H-indazole]", "IC50": 0.92}, {"smiles": "CSc1nn(-c2ccccc2)c2cc(N3CCN(Cc4cccnc4)CC3)ccc12", "note": "[Compound 32, 3-(Methylthio)-1-phenyl-6-(4-(pyridin-3-ylmethyl)piperazin-1-yl)-1H-indazole hydrochloride]", "IC50": 6.06}]}]}
